Data published in patent US10391095B2, “DNA-PK inhibitors” (Vertex Pharmaceuticals Incorporated, priority 2012, dated 2019).
pKi: −log10 of the molar value.

Target: DNA-PK (Homo sapiens, UniProt P78527)
Assay: DNA-PK inhibition assay (radiometric, 33P-ATP)
Assay type: biochemical
Settings: 100 μM ATP, competitive tight-binding fit
Outline: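 33P transfer from 100 µM ATP to a DNA-PK peptide (0.8 mg/mL) is measured after 45 min, using about 6 nM enzyme activated by 10 µg/mL sheared dsDNA (HEPES pH 7.5, MgCl2, DTT). Filter-bound counts fitted to a competitive tight-binding inhibition model give Ki.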

SMILES	pKi
[2H]c1nc(C)nc([2H])c1-c1cc(NC[C@@H](C)c2cccc3c(C(=O)NC)ccnc23)ncn1 [Compound 844, (S)—N-methyl-8-(1-((2′-methyl-4′,6′-dideutero-[4,5′-bipyrimidin]-6-yl)amino)propan-2-yl)quinoline-4-carboxamide]	> 7.52
CNC(=O)c1ccnc2c([C@H](C)CNc3cc(-c4ccc(C5CCC5)nc4)ncn3)cccc12 [Compound 845]	> 7.52
CNC(=O)c1ccnc2c([C@H](C)CNc3cc(-c4cnc(C5CCC5)nc4)ncn3)cccc12 [Compound 846]	> 7.52
CNC(=O)c1ccnc2c([C@H](C)CNc3cc(-c4ccc(C5CC5)nc4)ncn3)cccc12 [Compound 847]	> 7.52
CNC(=O)c1ccnc2c([C@H](C)CNc3cc(-c4ccc(C(C)C)nc4)ncn3)cccc12 [Compound 848]	> 7.52
CNC(=O)c1ccnc2c([C@H](C)CNc3cc(-c4cnc(C(C)C)nc4)ncn3)cccc12 [Compound 849]	> 7.52
CNC(=O)c1ccnc2c([C@H](C)CNc3cc(-c4ccc(C5CCC5)nc4)ncn3)ccc(F)c12 [Compound 850]	> 7.52
CNC(=O)c1ccnc2c([C@H](C)CNc3cc(-c4cnc(C5CCC5)nc4)ncn3)ccc(F)c12 [Compound 851]	> 7.52
CNC(=O)c1ccnc2c([C@H](C)CNc3cc(-c4ccc(C5CC5)nc4)ncn3)ccc(F)c12 [Compound 852]	> 7.52
CNC(=O)c1ccnc2c([C@H](C)CNc3cc(-c4ccc(C(C)C)nc4)ncn3)ccc(F)c12 [Compound 853]	> 7.52
CNC(=O)c1ccnc2c([C@H](C)CNc3cc(-c4cnc(C(C)C)nc4)ncn3)ccc(F)c12 [Compound 854]	> 7.52
CNC(=O)c1c(F)cnc2c([C@H](C)CNc3cc(-c4ccc(C5CCC5)nc4)ncn3)cccc12 [Compound 855]	> 7.52
CNC(=O)c1c(F)cnc2c([C@H](C)CNc3cc(-c4cnc(C5CCC5)nc4)ncn3)cccc12 [Compound 856]	> 7.52
CNC(=O)c1c(F)cnc2c([C@H](C)CNc3cc(-c4ccc(C5CC5)nc4)ncn3)cccc12 [Compound 857]	> 7.52
CNC(=O)c1c(F)cnc2c([C@H](C)CNc3cc(-c4ccc(C(C)C)nc4)ncn3)cccc12 [Compound 858]	> 7.52
CNC(=O)c1ccnc2c([C@H](C)CNc3cc(-c4ccc(CO)s4)ncn3)cccc12 [Compound 860]	> 7.52
[2H]c1nc(C)nc([2H])c1-c1cc(NC[C@@H](C)c2ccc(F)c3c(C(=O)NC)ccnc23)ncn1 [Compound 861]	> 7.52
[2H]c1nc(C)nc([2H])c1-c1cc(NC[C@@H](C)c2cccc3c(C(=O)NC)c(F)cnc23)ncn1 [Compound 862]	> 7.52
CNC(=O)c1ccnc2c([C@H](C)CNc3cc(-c4cc(C)nc(OC)c4)ncn3)cccc12 [Compound 863]	> 7.52
CNC(=O)c1ccnc2c([C@H](C)CNc3cc(-c4ccc5c(c4)N(C)CCO5)ncn3)cccc12 [Compound 864]	> 7.52
CNC(=O)c1ccnc2c([C@H](C)CNc3cc(-c4ccc(C(C)(C)O)nc4)ncn3)ccc(F)c12 [Compound 865]	> 7.52
CNC(=O)c1c(F)cnc2c([C@H](C)CNc3cc(-c4ccc(C(C)(C)O)nc4)ncn3)cccc12 [Compound 866]	> 7.52
CNC(=O)c1ccnc2c([C@H](C)CNc3cc(-c4cnc(N)c(F)c4)ncn3)cccc12 [Compound 867]	> 7.52
CNC(=O)c1ccnc2c([C@H](C)CNc3cc(-c4cncc(C#N)c4)ncn3)cccc12 [Compound 868]	> 7.52

SMILES	pKi
CNC(=O)c1ccnc2c([C@H](C)CNc3cc(-c4ccnc(OC)c4)ncn3)cccc12 [Compound 869]	> 7.52
CNC(=O)c1ccnc2c([C@H](C)CNc3cc(-c4cnc(C)c(C)c4)ncn3)cccc12 [Compound 870]	> 7.52
CNC(=O)c1ccnc2c([C@H](C)CNc3cc(-c4ccc(C#N)c(F)c4)ncn3)cccc12 [Compound 871]	> 7.52
CNC(=O)c1ccnc2c([C@H](C)CNc3cc(-c4cc(F)c(OC(C)C)c(F)c4)ncn3)cccc12 [Compound 872]	> 7.52
CNC(=O)c1ccnc2c([C@H](C)CNc3cc(-c4cc(F)c(F)c(F)c4)ncn3)cccc12 [Compound 873]	> 7.52
CNC(=O)c1ccnc2c([C@H](C)CNc3cc(-c4cncc(N)c4)ncn3)cccc12 [Compound 874]	> 7.52
CCOc1cc(-c2cc(NC[C@@H](C)c3cccc4c(C(=O)NC)ccnc34)ncn2)cnc1C [Compound 875]	> 7.52
CNC(=O)c1ccnc2c([C@H](C)CNc3cc(-c4ccnc(N)c4)ncn3)cccc12 [Compound 876]	> 7.52
CNC(=O)c1ccnc2c([C@H](C)CNc3cc(-c4cncc(S(C)(=O)=O)c4)ncn3)cccc12 [Compound 877]	> 7.52
CNC(=O)c1ccnc2c([C@H](C)CNc3cc(-c4cncc(OC)c4)ncn3)cccc12 [Compound 878]	> 7.52
CNC(=O)c1ccnc2c([C@H](C)CNc3cc(-c4cncc(C(C)(C)O)c4)ncn3)cccc12 [Compound 879]	> 7.52
CNC(=O)c1ccnc2c([C@H](C)CNc3cc(-c4cnc(N5CCOCC5)c(C)c4)ncn3)cccc12 [Compound 880]	> 7.52
CNC(=O)c1ccnc2c([C@H](C)CNc3cc(-c4cnc(OC)c(F)c4)ncn3)cccc12 [Compound 881]	> 7.52
CNC(=O)c1ccnc2c([C@H](C)CNc3cc(-c4cnc(OC)c(CO)c4)ncn3)cccc12 [Compound 882]	> 7.52
CNC(=O)c1c(F)cnc2c([C@H](C)CNc3cc(-c4cnc(OC)c(CO)c4)ncn3)cccc12 [Compound 884]	> 7.52
CNC(=O)c1ccnc2c([C@H](C)CNc3cc(-c4cnc(CN(C)C)nc4)ncn3)cccc12 [Compound 885]	> 7.52
CNC(=O)c1ccnc2c([C@H](C)CNc3cc(-c4cnc(COC)nc4)ncn3)cccc12 [Compound 886]	> 7.52
CNC(=O)c1ccnc2c([C@H](C)CNc3cc(-c4cc(OC)nc(OC)c4)ncn3)cccc12 [Compound 889]	> 7.52
CNC(=O)c1ccnc2c([C@H](C)CNc3cc(-c4ccnc(CO)c4)ncn3)cccc12 [Compound 890]	> 7.52
CNC(=O)c1ccnc2c([C@H](C)CNc3cc(-c4ccc(OCC5CC5)nc4)ncn3)cccc12 [Compound 891]	> 7.52
CNC(=O)c1ccnc2c([C@H](C)CNc3cc(-c4ccnc(N5CCCC5=O)c4)ncn3)cccc12 [Compound 893]	> 7.52
CNC(=O)c1ccnc2c([C@H](C)CNc3cc(-c4ccnc(NC5CC5)c4)ncn3)cccc12 [Compound 894]	> 7.52
CNC(=O)c1c(F)cnc2c([C@H](C)CNc3cc(-c4ccc(OCC5CC5)nc4)ncn3)cccc12 [Compound 896]	> 7.52
CCOc1cc(-c2cc(NC[C@@H](C)c3cccc4c(C(=O)NC)c(F)cnc34)ncn2)cnc1OCC [Compound 897]	> 7.52

SMILES	pKi
CNC(=O)c1c(F)cnc2c([C@H](C)CNc3cc(-c4cnc(OC)c(OC)c4)ncn3)cccc12 [Compound 898]	> 7.52
CNC(=O)c1c(F)cnc2c([C@H](C)CNc3cc(-c4ccc(F)nc4)ncn3)cccc12 [Compound 899]	> 7.52
CNC(=O)c1c(F)cnc2c([C@H](C)CNc3cc(-c4ccc(OC)nc4)ncn3)cccc12 [Compound 900]	> 7.52
CNC(=O)c1c(F)cnc2c([C@H](C)CNc3cc(-c4ccc(C#N)nc4)ncn3)cccc12 [Compound 901]	> 7.52
CNC(=O)c1c(F)cnc2c([C@H](C)CNc3cc(-c4cnc(OC)c(N)c4)ncn3)cccc12 [Compound 902]	> 7.52
CNC(=O)c1ccnc2c([C@H](C)CNc3cc(-c4ccnc(C)c4)ncn3)ccc(F)c12 [Compound 903]	> 7.52
CNC(=O)c1ccnc2c([C@H](C)CNc3cc(-c4ccc(OCC5CC5)nc4)ncn3)ccc(F)c12 [Compound 904]	> 7.52
CCOc1cc(-c2cc(NC[C@@H](C)c3ccc(F)c4c(C(=O)NC)ccnc34)ncn2)cnc1OCC [Compound 905]	> 7.52
CNC(=O)c1ccnc2c([C@H](C)CNc3cc(-c4cnc(OC)c(OC)c4)ncn3)ccc(F)c12 [Compound 906]	> 7.52
CNC(=O)c1ccnc2c([C@H](C)CNc3cc(-c4ccc(F)nc4)ncn3)ccc(F)c12 [Compound 907]	> 7.52
CNC(=O)c1ccnc2c([C@H](C)CNc3cc(-c4ccc(OC)nc4)ncn3)ccc(F)c12 [Compound 908]	> 7.52
CNC(=O)c1ccnc2c([C@H](C)CNc3cc(-c4ccc(C#N)nc4)ncn3)ccc(F)c12 [Compound 909]	> 7.52
CNC(=O)c1ccnc2c([C@H](C)CNc3cc(-c4cnc(OC)c(N)c4)ncn3)ccc(F)c12 [Compound 910]	> 7.52
CNC(=O)c1ccnc2c([C@H](C)CNc3cc(-c4ccnc(C5CC5)c4)ncn3)cccc12 [Compound 911]	> 7.52
CNC(=O)c1ccnc2c([C@H](C)CNc3cc(-c4cncc(N5CCOCC5)c4)ncn3)cccc12 [Compound 912]	> 7.52
CNC(=O)c1ccnc2c([C@H](C)CNc3cc(-c4ccnc(C5CCC5)c4)ncn3)cccc12 [Compound 913]	> 7.52
CNC(=O)c1ccnc2c([C@H](C)CNc3cc(-c4ccnc(C5CC5)c4)ncn3)ccc(F)c12 [Compound 914]	> 7.52
CNC(=O)c1ccnc2c([C@H](C)CNc3cc(-c4cncc(N5CCOCC5)c4)ncn3)ccc(F)c12 [Compound 915]	> 7.52
CNC(=O)c1ccnc2c([C@H](C)CNc3cc(-c4cnc(CO)c(OC)c4)ncn3)ccc(F)c12 [Compound 916]	> 7.52
CNC(=O)c1c(F)cnc2c([C@H](C)CNc3cc(-c4ccnc(C5CC5)c4)ncn3)cccc12 [Compound 917]	> 7.52
CNC(=O)c1c(F)cnc2c([C@H](C)CNc3cc(-c4cnc(C#N)c(OC)c4)ncn3)cccc12 [Compound 918]	> 7.52
CNC(=O)c1c(F)cnc2c([C@H](C)CNc3cc(-c4ccnc(C5CCC5)c4)ncn3)cccc12 [Compound 919]	> 7.52
CNC(=O)c1c(F)cnc2c([C@H](C)CNc3cc(-c4cnc(CO)c(OC)c4)ncn3)cccc12 [Compound 920]	> 7.52
